According to PubChem BioAssay AID256 (DTP/NCI, 2004):
“And” between values parts separate entries of the source, which are not always exact repeats. Identical values can stand only once. Inconclusive results and toxic doses are left out.

System: CD2F1 mice, L1210 leukemia ip, survival T/C
Assay: NCI In Vivo Anticancer Drug Screen. Data for tumor model L1210 Leukemia (intraperitoneal) in CD2F1 (CDF1) mice
Conditions: higher = longer survival
How it was run: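 Mice carrying a transplanted tumor received test compound or vehicle alone. The value is the measurement in the treated group divided by that in the vehicle-treated control group.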

[1] = endpoint: mean survival time, dose: 100.0 mg/kg/injection, schedule: Q01DX009 (ip), vehicle: saline
[2] = endpoint: mean survival time, dose: 100.0 mg/kg/injection, schedule: Q01DX009 (ip), vehicle: saline with Tween-80
[3] = endpoint: mean survival time, dose: 100.0 mg/kg/injection, schedule: Q04DX003 (ip), vehicle: saline with Tween-80
[4] = endpoint: mean survival time, dose: 200.0 mg/kg/injection, schedule: Q01DX009 (ip), vehicle: saline with Tween-80
[5] = endpoint: mean survival time, dose: 200.0 mg/kg/injection, schedule: Q04DX003 (ip), vehicle: saline with Tween-80
[6] = endpoint: mean survival time, dose: 400.0 mg/kg/injection, schedule: Q01DX009 (ip), vehicle: saline with Tween-80
[7] = endpoint: mean survival time, dose: 400.0 mg/kg/injection, schedule: Q04DX003 (ip), vehicle: saline with Tween-80

O=C1c2ccccc2C(=O)c2c(NCCN3CCCCC3)ccc(NCCN3CCCCC3)c21
T/C (endpoint: mean survival time, dose: 8.0 mg/kg/injection, schedule: Q01DX009 (ip), vehicle: acid diluted with saline): 100 % of control | T/C (endpoint: mean survival time, dose: 16.0 mg/kg/injection, schedule: Q01DX009 (ip), vehicle: acid diluted with saline): 102 % of control | T/C (endpoint: mean survival time, dose: 32.0 mg/kg/injection, schedule: Q01DX009 (ip), vehicle: acid diluted with saline): 110 % of control | T/C (endpoint: mean survival time, dose: 64.0 mg/kg/injection, schedule: Q01DX009 (ip), vehicle: acid diluted with saline): 104 % of control

O=C1CCC2(CCCCC2)N1
T/C (endpoint: mean survival time, dose: 1.25 mg/kg/injection, schedule: Q01DX009 (ip), vehicle: saline): 107 % of control | T/C (endpoint: mean survival time, dose: 2.5 mg/kg/injection, schedule: Q01DX009 (ip), vehicle: saline): 107 % of control | T/C (endpoint: mean survival time, dose: 3.13 mg/kg/injection, schedule: Q01DX009 (ip), vehicle: saline): 96 % of control | T/C (endpoint: mean survival time, dose: 5.0 mg/kg/injection, schedule: Q01DX009 (ip), vehicle: saline): 103 % of control | T/C (endpoint: mean survival time, dose: 6.25 mg/kg/injection, schedule: Q01DX009 (ip), vehicle: saline): 101 % of control | T/C (endpoint: mean survival time, dose: 12.5 mg/kg/injection, schedule: Q01DX009 (ip), vehicle: saline): 98 % of control and 101 % of control

C=C1c2cccc(O)c2C(O)=C2C(=O)[C@]3(O)C(O)=C(C(N)=O)C(=O)[C@@H](N(C)C)[C@@H]3[C@@H](O)[C@H]12
T/C (endpoint: median survival time, dose: 12.5 mg/kg/injection, schedule: Q01DX009 (ip), vehicle: Klucel (hydroxypropylcellulose) (HPC)): 96 % of control | T/C (endpoint: median survival time, dose: 25.0 mg/kg/injection, schedule: Q01DX009 (ip), vehicle: Klucel (hydroxypropylcellulose) (HPC)): 104 % of control | T/C (endpoint: median survival time, dose: 50.0 mg/kg/injection, schedule: Q01DX009 (ip), vehicle: Klucel (hydroxypropylcellulose) (HPC)): 107 % of control | T/C (endpoint: median survival time, dose: 100.0 mg/kg/injection, schedule: Q01DX009 (ip), vehicle: Klucel (hydroxypropylcellulose) (HPC)): 114 % of control

O=P1(N2CC2)OCCCN1CCCl (stereo unspecified)
T/C (endpoint: mean survival time, dose: 3.8 mg/kg/injection, schedule: Q01DX001 (ip), vehicle: distilled water + Tween-80): 102 % of control | T/C (endpoint: mean survival time, dose: 7.5 mg/kg/injection, schedule: Q01DX001 (ip), vehicle: distilled water + Tween-80): 106 % of control | T/C (endpoint: mean survival time, dose: 15.0 mg/kg/injection, schedule: Q01DX001 (ip), vehicle: distilled water + Tween-80): 107 % of control | T/C (endpoint: mean survival time, dose: 30.0 mg/kg/injection, schedule: Q01DX001 (ip), vehicle: distilled water + Tween-80): 98 % of control | T/C (endpoint: mean survival time, dose: 62.5 mg/kg/injection, schedule: Q01DX001 (ip), vehicle: saline with Tween-80): 110 % of control

O=C(O)CS(=O)(=O)c1ccccc1
T/C (endpoint: mean survival time, dose: 50.0 mg/kg/injection, schedule: Q01DX009 (ip), vehicle: saline): 86 % of control | T/C [1]: 89 % of control

N#CCc1c(C(N)=O)ncn1C1OC(COP(=O)(O)O)C(O)C1O (stereo unspecified)
T/C (endpoint: median survival time, dose: 12.5 mg/kg/injection, schedule: Q01DX005 (ip), vehicle: water): 109 % of control | T/C (endpoint: median survival time, dose: 25.0 mg/kg/injection, schedule: Q01DX005 (ip), vehicle: water): 104 % of control | T/C (endpoint: median survival time, dose: 50.0 mg/kg/injection, schedule: Q01DX005 (ip), vehicle: water): 103 % of control | T/C (endpoint: median survival time, dose: 100.0 mg/kg/injection, schedule: Q01DX005 (ip), vehicle: water): 97 % of control | T/C (endpoint: median survival time, dose: 200.0 mg/kg/injection, schedule: Q01DX005 (ip), vehicle: water): 97 % of control

O=[N+]([O-])c1ccc(N2CCOCC2)c([N+](=O)[O-])c1
T/C [2]: 103 % of control | T/C [3]: 97 % of control | T/C [4]: 100 % of control | T/C [5]: 103 % of control | T/C [6]: 97 % of control | T/C [7]: 100 % of control

Nc1ccc(C(=O)O)cc1S(=O)(=O)O
T/C (endpoint: mean survival time, dose: 25.0 mg/kg/injection, schedule: Q01DX001 (ip), vehicle: Klucel (hydroxypropylcellulose) (HPC)): 96 % of control | T/C (endpoint: mean survival time, dose: 50.0 mg/kg/injection, schedule: Q01DX001 (ip), vehicle: Klucel (hydroxypropylcellulose) (HPC)): 100 % of control | T/C (endpoint: mean survival time, dose: 100.0 mg/kg/injection, schedule: Q01DX001 (ip), vehicle: Klucel (hydroxypropylcellulose) (HPC)): 107 % of control

CCN(Cc1cnc2nc(N)nc(N)c2n1)c1ccc(C(=O)NC(CCC(=O)O)C(=O)O)cc1 (stereo unspecified)
T/C (endpoint: mean survival time, dose: 2.5 mg/kg/injection, schedule: Q01DX009 (ip), vehicle: sodium bicarbonate): 172 % of control | T/C (endpoint: mean survival time, dose: 5.0 mg/kg/injection, schedule: Q01DX009 (ip), vehicle: sodium bicarbonate): 174 % of control | T/C (endpoint: mean survival time, dose: 6.25 mg/kg/injection, schedule: Q01DX009 (ip), vehicle: sodium bicarbonate): 89 % of control | T/C (endpoint: mean survival time, dose: 10.0 mg/kg/injection, schedule: Q01DX009 (ip), vehicle: sodium bicarbonate): 217 % of control | T/C (endpoint: mean survival time, dose: 12.5 mg/kg/injection, schedule: Q01DX009 (ip), vehicle: sodium bicarbonate): 92 % of control

COc1c(C)ccc2c1CCN1C3=C(CCC21)CC1(CC3)OCCO1 (stereo unspecified)
T/C [2]: 95 % of control | T/C [3]: 92 % of control | T/C [4]: 89 % of control | T/C [5]: 94 % of control | T/C [7]: 94 % of control

O=C(O)C1CC[N-]CC1.O=C(O)C1CC[N-]CC1.O=C(O)C1CC[N-]CC1.O=C(O)C1CC[N-]CC1.[Cl][Rh][Cl]
T/C (endpoint: mean survival time, dose: 66.0 mg/kg/injection, schedule: Q01DX009 (ip), vehicle: saline): 112 % of control | T/C [1]: 110 % of control

COc1ccc(OC)c(NC(=O)c2cccc([N+](=O)[O-])c2)c1
T/C [2]: 90 % of control and 103 % of control | T/C [4]: 92 % of control and 93 % of control | T/C [6]: 89 % of control and 95 % of control

Cc1[nH]c2ccccc2c1C(=O)C(N)=O
T/C [2]: 100 % of control | T/C [3]: 92 % of control | T/C [4]: 97 % of control | T/C [5]: 86 % of control | T/C [6]: 95 % of control | T/C [7]: 92 % of control

CCOC(CCC#N)c1ccc(Cl)cc1 (stereo unspecified)
T/C [1]: 98 % of control | T/C [3]: 92 % of control | T/C (endpoint: mean survival time, dose: 200.0 mg/kg/injection, schedule: Q01DX009 (ip), vehicle: saline): 101 % of control | T/C [5]: 100 % of control | T/C (endpoint: mean survival time, dose: 400.0 mg/kg/injection, schedule: Q01DX009 (ip), vehicle: saline): 98 % of control | T/C [7]: 102 % of control

O=C(Nc1cccc(Cl)c1)C(c1ccccc1)c1ccccc1
T/C (endpoint: mean survival time, dose: 100.0 mg/kg/injection, schedule: Q04DX002 (ip), vehicle: saline with Tween-80): 95 % of control | T/C (endpoint: mean survival time, dose: 200.0 mg/kg/injection, schedule: Q04DX002 (ip), vehicle: saline with Tween-80): 87 % of control | T/C (endpoint: mean survival time, dose: 400.0 mg/kg/injection, schedule: Q04DX002 (ip), vehicle: saline with Tween-80): 91 % of control

O=[N+]([O-])c1ccc(/C=C/c2ccc([N+](=O)[O-])cc2S(=O)(=O)O)c(S(=O)(=O)O)c1
T/C [2]: 102 % of control | T/C [4]: 105 % of control | T/C [6]: 94 % of control

CCCCCCCCCCCCCCCCOc1ccc(C(=O)OC)cc1NS(=O)(=O)c1ccc(C(=O)O)cc1
T/C (endpoint: mean survival time, dose: 100.0 mg/kg/injection, schedule: Q01DX001 (ip), vehicle: saline with Tween-80): 96 % of control | T/C (endpoint: mean survival time, dose: 100.0 mg/kg/injection, schedule: Q01DX009 (ip), vehicle: Klucel (hydroxypropylcellulose) (HPC)): 98 % of control | T/C (endpoint: mean survival time, dose: 200.0 mg/kg/injection, schedule: Q01DX001 (ip), vehicle: saline with Tween-80): 98 % of control | T/C (endpoint: mean survival time, dose: 200.0 mg/kg/injection, schedule: Q01DX009 (ip), vehicle: Klucel (hydroxypropylcellulose) (HPC)): 95 % of control | T/C (endpoint: mean survival time, dose: 400.0 mg/kg/injection, schedule: Q01DX001 (ip), vehicle: saline with Tween-80): 91 % of control | T/C (endpoint: mean survival time, dose: 400.0 mg/kg/injection, schedule: Q01DX009 (ip), vehicle: Klucel (hydroxypropylcellulose) (HPC)): 98 % of control

Nc1nc(N)c2nc(CNc3ccc(C(=O)NC(CCC(=O)NC(CCC(=O)O)C(=O)O)C(=O)O)cc3)cnc2n1 (stereo unspecified)
T/C (endpoint: mean survival time, dose: 0.7 mg/kg/injection, schedule: Q01DX009 (ip), vehicle: sodium bicarbonate): 96 % of control | T/C (endpoint: mean survival time, dose: 1.1 mg/kg/injection, schedule: Q01DX009 (ip), vehicle: sodium bicarbonate): 92 % of control
